Experimental data published in ChEMBL document CHEMBL1201862, “PubChem BioAssay data set” (2004).
Calls of active or inactive are those of the source. Rule as the data show it: actives have a measured IC50 and inactives only a lower limit.

Biological target: Envelope glycoprotein gp160 (Human immunodeficiency virus 1, UniProt Q6QLK5)
Assay: inhibitors of HIV fusion peptide binding, primary screen, biochemical, uHTS, fluorescence dequenching (AID 1986)

Sequence of Envelope glycoprotein gp160 (Q6QLK5 whole entry, the tested form may be a part): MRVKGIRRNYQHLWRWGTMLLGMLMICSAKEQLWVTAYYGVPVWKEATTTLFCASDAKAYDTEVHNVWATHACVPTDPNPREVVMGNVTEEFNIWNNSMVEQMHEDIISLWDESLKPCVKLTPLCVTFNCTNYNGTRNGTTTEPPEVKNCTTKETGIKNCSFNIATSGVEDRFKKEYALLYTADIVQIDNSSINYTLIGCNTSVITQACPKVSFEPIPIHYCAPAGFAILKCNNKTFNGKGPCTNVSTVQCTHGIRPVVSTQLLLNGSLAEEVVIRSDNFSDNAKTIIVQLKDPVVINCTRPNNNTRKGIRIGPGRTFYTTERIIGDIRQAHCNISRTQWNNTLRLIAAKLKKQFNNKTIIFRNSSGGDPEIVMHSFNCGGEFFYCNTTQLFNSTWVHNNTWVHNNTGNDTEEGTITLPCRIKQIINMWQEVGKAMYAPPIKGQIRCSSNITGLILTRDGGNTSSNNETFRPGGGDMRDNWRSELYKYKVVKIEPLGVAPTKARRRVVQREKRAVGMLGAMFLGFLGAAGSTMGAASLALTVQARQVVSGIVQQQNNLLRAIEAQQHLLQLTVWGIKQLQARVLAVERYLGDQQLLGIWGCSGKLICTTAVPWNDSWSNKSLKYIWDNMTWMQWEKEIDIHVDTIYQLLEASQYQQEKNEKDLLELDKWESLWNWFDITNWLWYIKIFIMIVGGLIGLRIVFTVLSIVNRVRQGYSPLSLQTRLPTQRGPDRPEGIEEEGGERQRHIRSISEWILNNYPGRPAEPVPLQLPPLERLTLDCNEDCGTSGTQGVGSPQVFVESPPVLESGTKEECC

N#Cc1c(O)nc(SCC(=O)Nc2ccc(OC(F)(F)Cl)cc2)nc1-c1ccccc1
IC50: 15.6 µM (active)

COc1cc(/C=C2\C(=N)N3N=C(S(C)(=O)=O)SC3=NC2=O)cc(OC)c1OCCOc1cccc(C)c1
IC50: 13.8 µM (active)

O=C(O)c1cccc(-n2cccc2/C=C2/NC(=O)N(c3ccc(Cl)cc3)C2=O)c1
IC50: 16.9 µM (active)
